Where a SMILES comes first, the peptide text is derived from it. Bridges are numbered along the chain shown (N, C = ends). [ ]: non-standard residue; d: D form. The star is where a group is joined. hPhe(3-Cl-4-CF3) = N[C@@H](CCc1ccc(C(F)(F)F)c(Cl)c1)C(=O)O; NPrPhe(4-CF3) = CCCN[C@@H](Cc1ccc(C(F)(F)F)cc1)C(=O)O; NMeGly(cPent) = CN[C@H](C(=O)O)C1CCCC1; Hyp = O=C(O)[C@@H]1C[C@@H](O)CN1; NMeD = CN[C@@H](CC(=O)O)C(=O)O; NMeL = CN[C@@H](CC(C)C)C(=O)O; Morpholide = C1CN(*)CCO1; NMeA = CN[C@@H](C)C(=O)O; Ac5c = NC1(C(=O)O)CCCC1; Aze = O=C(O)[C@@H]1CCN1; Abu = CC[C@H](N)C(=O)O; Ac4c = NC1(C(=O)O)CCC1; NEtG = CCNCC(=O)O; Sar = CNCC(=O)O
How the values were obtained:
[1] = target: GDP-bound NRAS wild-type protein (Homo sapiens, UniProt P01111); test: Binding to NRAS by surface plasmon resonance (SPR), KD and KD ratio to KRAS
Procedure, shortened: (§1)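 GDP-loaded biotinylated Avi-tag RAS proteins (E. coli-expressed) captured on a Biotin CAPture chip at ~100–300 RU; single-cycle kinetics at 30°C, 100 µL/min, 75 s injections of rising compound concentrations. HBS pH 7.4 running buffer with 1 mM DTT, 10 mM MgCl2, 10 µM GDP, 4% DMSO. KD from 1:1 binding fit.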

[2] = tested on: human lung cancer strain NCI-H441; assay type: cell-based
Procedure, shortened: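 Readout: […] after the ATP-based reagent. Compound: serial dilutions in dimethyl sulfoxide.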

[3] = target: HRAS wild-type protein (Homo sapiens, UniProt P01112); test: Binding to HRAS by surface plasmon resonance (SPR), KD and KD ratio to KRAS
Procedure, shortened: as §1

[4] = ratio of the KD value with respect to GDP-bound NRAS wild-type protein to the KD value with respect to KRAS
[5] = ratio of the KD value with respect to HRAS wild-type protein to the KD value with respect to KRAS
[6] = ratio of KD for GDP-bound NRAS wild-type protein to KD for KRAS
[7] = ratio of KD for HRAS wild-type protein to KD for KRAS
[8] = ratio of KD value for GDP-bound NRAS wild-type protein to KD value for KRAS (SPR)
[9] = ratio of KD value for HRAS wild-type protein to KD value for KRAS (SPR)

Sequence of HRAS wild-type protein (P01112 whole entry): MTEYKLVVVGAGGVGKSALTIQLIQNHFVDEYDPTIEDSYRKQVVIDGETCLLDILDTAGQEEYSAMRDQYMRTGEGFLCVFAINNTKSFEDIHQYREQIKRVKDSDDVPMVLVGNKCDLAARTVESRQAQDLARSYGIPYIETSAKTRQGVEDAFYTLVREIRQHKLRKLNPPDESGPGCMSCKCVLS
Sequence of GDP-bound NRAS wild-type protein (P01111 whole entry): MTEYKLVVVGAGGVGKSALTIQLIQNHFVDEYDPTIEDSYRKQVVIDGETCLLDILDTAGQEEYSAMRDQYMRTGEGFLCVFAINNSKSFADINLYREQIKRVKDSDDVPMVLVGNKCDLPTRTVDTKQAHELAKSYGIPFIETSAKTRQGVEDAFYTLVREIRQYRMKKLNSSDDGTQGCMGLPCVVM

SMILES | NRAS /KRAS [1, 4] | IC50 [2] [nM] | HRAS /KRAS [3, 5] | NRAS /KRAS [1, 6] | HRAS /KRAS [3, 7] | NRAS /KRAS [1, 8] | HRAS /KRAS [3, 9]
CCO[C@@H]1C[C@H]2C(=O)NC3(CCC3)C(=O)N(C)[C@@H](C3CCCC3)C(=O)N(C)[C@H](C(=O)N3CCOCC3)CC(=O)N(C)[C@@H](CCOC)C(=O)N[C@@H]([C@@H](C)CC)C(=O)N(C)CC(=O)N(C)[C@H]3CCCCCN(C3=O)[C@@H](Cc3ccc(C(F)(F)F)cc3)C(=O)N(C)CC(=O)N[C@@H](CCc3cc(F)c(C(F)(F)F)c(F)c3)C(=O)N2C1 [PP0690] | B (a compound having 3 or more and less than 10 is denoted as B) | 60.7 | B (a compound having 3 or more and less than 10 is denoted as B) | – | – | – | –
CC[C@H](C)[C@@H]1NC(=O)[C@H](CC(C)C)N(C)C(=O)C[C@@H](C(=O)N2CCOCC2)N(C)C(=O)[C@H](C2CCCC2)N(C)C(=O)C2(CCC2)NC(=O)[C@]2(C)CCCN2C(=O)[C@H](CCc2cc(F)c(C(F)(F)F)c(F)c2)NC(=O)CN(C)C(=O)[C@H](Cc2ccc(C(F)(F)F)cc2)N2CCCC[C@@H](C2=O)N(C)C(=O)CN(C)C1=O [PP0808] | – | 16.7 | – | B (a compound having 3 or more and less than 10 is denoted as B) | B (a compound having 3 or more and less than 10 is denoted as B) | – | –
CCCC[C@H]1C(=O)N[C@@H]([C@@H](C)CC)C(=O)N(C)CC(=O)N(C)[C@H]2C/C=C\CCN(C2=O)[C@@H](Cc2ccc(C(F)(F)F)cc2)C(=O)N(C)CC(=O)N[C@@H](CCc2ccc(C(F)(F)F)c(OC)c2)C(=O)N2C[C@H](OCC)C[C@H]2C(=O)NC2(CCC2)C(=O)N(C)[C@@H](C2CCCC2)C(=O)N(C)[C@H](C(=O)N(C)CC)CC(=O)N1C [PP2840] | – | 8.3 | – | A (a compound having 10 or more and less than 20 is denoted as A) | A (a compound having 10 or more and less than 20 is denoted as A) | – | –
CCC[C@H]1C(=O)N[C@@H]([C@@H](C)CC)C(=O)N(C)CC(=O)N(C)[C@H]2C/C=C\CCN(C2=O)[C@@H](Cc2ccc(C)cc2)C(=O)N(C)CC(=O)N[C@@H](CCc2ccc3sc(F)c(C)c3c2)C(=O)N2C[C@H](OCC)C[C@H]2C(=O)NC2(CC(C)(C)C2)C(=O)N(C)[C@@H](C2CCCC2)C(=O)N(C)[C@H](C(=O)N(C)C)CC(=O)N1C [PP2949] | – | 3.5 | – | A (a compound having 10 or more and less than 20 is denoted as A) | A (a compound having 10 or more and less than 20 is denoted as A) | – | –
CC[C@H](C)[C@@H]1NC(=O)[C@H](CC2CCCC2)N(C)C(=O)C[C@@H](C(=O)N(C)C)N(C)C(=O)[C@H](C2CCCC2)N(C)C(=O)C2(CCC2)NC(=O)[C@@H]2C[C@@H](F)CN2C(=O)[C@H](CCc2cc(F)c(C(F)(F)F)c(F)c2)NC(=O)CN(C)C(=O)[C@H](Cc2ccc(C(F)(F)F)cc2)N2CC/C=C\C[C@@H](C2=O)N(C)C(=O)CN(C)C1=O [PP1502] | – | 2 | – | – | – | A (a compound having 10 or more and less than 20 is denoted as A) | A (a compound having 10 or more and less than 20 is denoted as A)
CC[C@H](C)[C@@H]1NC(=O)[C@H](CC(C)C)N(C)C(=O)C[C@@H](C(=O)N2CCOCC2)N(C)C(=O)[C@H](C2CCCC2)N(C)C(=O)C2(CCCC2)NC(=O)[C@@H]2CCCN2C(=O)[C@H](CCc2ccc(C(F)(F)F)c(Cl)c2)NC(=O)CN(C)C(=O)[C@H](Cc2ccc(Cl)cc2)N2C/C=C\CC[C@@H](C2=O)N(C)C(=O)CN(C)C1=O [PP0608] | C (A compound having a KD ratio of 0.1 or more and less than 3 is denoted as C) | 252 | B (a compound having 3 or more and less than 10 is denoted as B) | – | – | – | –
CC[C@H](C)[C@@H]1NC(=O)[C@H](CC)N(C)C(=O)C[C@@H](C(=O)N(C)C)N(C)C(=O)[C@H](C2CCCC2)N(C)C(=O)C2(CCC2)NC(=O)[C@@H]2C[C@H](OC)CN2C(=O)[C@H](CCc2cc(F)c(C(F)(F)F)c(F)c2)NC(=O)CN(C)C(=O)[C@H](Cc2ccc(C(F)(F)F)cc2)N2CC/C=C\C[C@@H](C2=O)N(C)C(=O)CN(C)C1=O [PP1128] | – | 121 | – | AA (a compound having 20 or more is denoted as AA) | A (a compound having 10 or more and less than 20 is denoted as A) | – | –
CCCN1C(=O)CN(C)C(=O)CN(CC)C(=O)[C@H]([C@@H](C)CC)NC(=O)[C@H](CC(C)C)N(C)C(=O)C[C@@H](C(=O)N(C)C)N(C)C(=O)[C@H](C2CCCC2)N(C)C(=O)C2(CCC2)NC(=O)[C@@H]2C[C@@H](OCC)CN2C(=O)[C@H](CCc2ccc(C(F)(F)F)c(Cl)c2)NC(=O)CN(C)C(=O)[C@@H]1Cc1ccc(C(F)(F)F)cc1 [PP0428] ([NMeL]I[NEtG][Sar][NPrPhe(4-CF3)][Sar][hPhe(3-Cl-4-CF3)][Hyp](Et)[Ac4c][NMeGly(cPent)][NMeD]-NMe2; lactam N-11) | B (a compound having 3 or more and less than 10 is denoted as B) | 4.6 | C (A compound having a KD ratio of 0.1 or more and less than 3 is denoted as C) | – | – | – | –
CC[C@H](C)[C@@H]1NC(=O)[C@H](CC(C)C)N(C)C(=O)C[C@@H](C(=O)N2CCOCC2)N(C)C(=O)[C@H](C2CCCC2)N(C)C(=O)C2(CCC2)NC(=O)[C@@H]2[C@@H](OCC3CCCC3)CCN2C(=O)[C@H](CCc2cc(F)c(C(F)(F)F)c(F)c2)NC(=O)CN(C)C(=O)[C@H](Cc2ccc(C(F)(F)F)cc2)N2CCCC[C@@H](C2=O)N(C)C(=O)CN(C)C1=O [PP1073] | – | 83.7 | – | B (a compound having 3 or more and less than 10 is denoted as B) | B (a compound having 3 or more and less than 10 is denoted as B) | – | –
CCC[C@H]1C(=O)N[C@@H]([C@@H](C)CC)C(=O)N(C)CC(=O)N(C)[C@H]2C/C=C\CCN(C2=O)[C@@H](Cc2ccc(C(F)(F)F)cc2)C(=O)N(C)CC(=O)N[C@@H](CCc2cc(F)c(C(F)(F)F)c(F)c2)C(=O)N(CC)CC(=O)NC2(CC(C)(C)C2)C(=O)N(C)[C@@H](C2CCCC2)C(=O)N(C)[C@H](C(=O)N(C)C)CC(=O)N1C [PP1777] | – | 79.3 | – | – | – | A (a compound having 10 or more and less than 20 is denoted as A) | B (a compound having 3 or more and less than 10 is denoted as B)
CC[C@H](C)[C@@H]1NC(=O)[C@H](CC(C)C)N(C)C(=O)C[C@@H](C(=O)N2CCOCC2)N(C)C(=O)[C@H](C2CCCC2)N(C)C(=O)C2(CCC2)NC(=O)[C@@H]2[C@@H](OC)CCN2C(=O)[C@H](CCc2cc(F)c(C(F)(F)F)c(F)c2)NC(=O)CN(C)C(=O)[C@H](Cc2ccc(C(F)(F)F)cc2)N2CCCC[C@@H](C2=O)N(C)C(=O)CN(C)C1=O [PP1075] | – | 21.8 | – | B (a compound having 3 or more and less than 10 is denoted as B) | B (a compound having 3 or more and less than 10 is denoted as B) | – | –
CCCN1C(=O)[C@@H]2CCN2C(=O)[C@H](C)N(C)C(=O)[C@H](CC)NC(=O)[C@H](CC(C)C)N(C)C(=O)C[C@@H](C(=O)N2CCOCC2)N(C)C(=O)[C@H](C2CCCC2)N(C)C(=O)C2(CCCC2)NC(=O)[C@@H]2CCCN2C(=O)[C@H](CCc2ccc(C(F)(F)F)c(Cl)c2)NC(=O)CN(C)C(=O)[C@@H]1Cc1ccc(C(F)(F)F)cc1 [PP0269] ([NMeL][Abu][NMeA][Aze][NPrPhe(4-CF3)][Sar][hPhe(3-Cl-4-CF3)]P[Ac5c][NMeGly(cPent)][NMeD]-Morpholide; lactam N-11) | – | 34.7 | – | C (A compound having a KD ratio of 0.1 or more and less than 3 is denoted as C) | B (a compound having 3 or more and less than 10 is denoted as B) | – | –
CCO[C@@H]1C[C@H]2C(=O)NC3(CCC3)C(=O)N(C)[C@@H](C3CCCC3)C(=O)N(CCC3CCC3)[C@H](C(=O)N3CCOCC3)CC(=O)N(C)[C@@H](CC(C)C)C(=O)N[C@@H]([C@@H](C)CC)C(=O)N(C)CC(=O)N(C)[C@H]3CCCCN(C3=O)[C@@H](Cc3ccc(C(F)(F)F)cc3)C(=O)N(C)CC(=O)N[C@@H](CCc3cc(F)c(C(F)(F)F)c(F)c3)C(=O)N2C1 [PP0650] | C (A compound having a KD ratio of 0.1 or more and less than 3 is denoted as C) | 45.7 | B (a compound having 3 or more and less than 10 is denoted as B) | – | – | – | –
CCCO[C@@H]1C[C@H]2C(=O)NC3(CC(C)(C)C3)C(=O)N(C)[C@@H](C3CCCC3)C(=O)N(C)[C@H](C(=O)N3CCCC3)CC(=O)N(C)[C@H]3CCCCc4ccc(cc4)C[C@@H](C(=O)N(C)CC(=O)N[C@@H](CCc4ccc(C(F)(F)F)c(OC)c4)C(=O)N2C1)N1CC/C=C\C[C@@H](C1=O)N(C)C(=O)CN(C)C(=O)[C@H]([C@@H](C)CC)NC3=O [PP3094] | – | 2.2 | – | A (a compound having 10 or more and less than 20 is denoted as A) | B (a compound having 3 or more and less than 10 is denoted as B) | – | –
CCC[C@H]1C(=O)N[C@@H]([C@@H](C)CC)C(=O)N(C)CC(=O)N(C)[C@H]2C/C=C\CCN(C2=O)[C@@H](Cc2ccc(C(F)(F)F)cc2)C(=O)N(C)CC(=O)N[C@@H](CCc2ccc(C(F)(F)F)c(Cl)c2)C(=O)N2C[C@@H](C)C[C@H]2C(=O)NC2(CC(C)(C)C2)C(=O)N(C)[C@@H](C2CCCC2)C(=O)N(C)[C@H](C(=O)N(C)C)CC(=O)N1C [PP2270] | B (a compound having 3 or more and less than 10 is denoted as B) | 10.4 | B (a compound having 3 or more and less than 10 is denoted as B) | – | – | – | –

— patent EP4603105A1, “PHARMACEUTICAL COMPOSITION CONTAINING CYCLIC COMPOUND HAVING SELECTIVE KRAS INHIBITORY EFFECT AGAINST HRAS AND NRAS” (CHUGAI SEIYAKU KABUSHIKI KAISHA, priority 2022, dated 2024)
